According to patent US20070202188A1, “Use of alkene carboxlic acid n alkylamides as flavouring agents” (priority 2003, published 2007):

Columns and labels:
group of 6-8 testers = assay: Sensorial evaluation (tasting of sugar solution by a group of testers); type: in vivo; conditions: approx. 5 ml swallowed
Description: The substance to be tasted (see below) was dissolved in ethanol and the ethanolic solution was then diluted with 11% strength sugar solution (final concentration: c). For tasting, in each case approx. 5 ml of the sugar solution was swallowed. If the threshold value of the substance was known, a value just above the threshold value was chosen for the tasting. A group of 6-8 testers tasted the solutions.

oral cavity = conditions: in vivo; cited from earlier work
mouse = mouse oral; cited from earlier work
[1] = cited from earlier work
mouth = conditions: in vivo; cited from earlier work
[2] = c=10 ppm in 11% strength sugar solution

Question: With “2E-decenoic acid N-(2-methylbutyl)amide [Example 2]” as the compound, how does the sensorial profile (group of 6-8 testers; [2]) read?
Answer: slightly piquant, saliva-promoting, tingling, mild heat sensation

Question: With 2E-tetradecenoic acid N-isobutylamide as the compound, how does the “sensorial effect described in the literature” value (oral cavity) read?
Answer: no piquant taste was found

Question: With “3E-nonenoic acid N-isobutylamide [Example 3]” as the compound, how does the sensorial profile (group of 6-8 testers; [2]) read?
Answer: anaesthetizing, piquant taste builds up, impression of sweet palmond, slightly bitter

Question: Which results are given for `CCCCC/C=C/C=C/C(=O)NCC(C)C` [2E,4E-decadienoic acid N-isobutylamide]?
Answer: sensorial profile (group of 6-8 testers; [2]): saliva-promoting, fatty, fruity, slightly tingling, slightly piquant; sensorial effect described in the literature (oral cavity): chiefly shows an anaesthetizing effect

Question: Which sensorial profile (group of 6-8 testers; [2]) does the source give for `CCCCCC/C=C/CC(=O)NCC(C)C` [Example 4, 3E-decenoic acid N-isobutylamide] here?
Answer: tickling piquant taste, builds up slowly in the pharynx, slightly bitter

Question: For `COc1cc(CNC(=O)CCCC/C=C/C(C)C)ccc1O` [capsaicin, N-(4-hydroxy-3-methoxybenzyl)-8-methyl-(6E)-nonenoic acid amid], which LD50 (mouse) is on record?
Answer: 47 mg

Question: And the “damage with frequent use and overdose” value [1]?
Answer: chronic gastritis and kidney and liver damage

Question: Which sensorial profile (group of 6-8 testers; c=100 ppb in 11% strength sugar solution) does the source give for `COc1cc(CNC(=O)CCCCCCC(C)C)ccc1O` [dihydrocapsaicin] here?
Answer: action starts with a slight delay in the pharyngeal cavity, aggressive, burning piquant taste (chilli, slight evolution of heat)

Question: Which intrinsic taste (mouth) does the source give for `O=C(/C=C/C=C/c1ccc2c(c1)OCO2)N1CCCCC1` [piperine, 1-piperoylpiperidine] here?
Answer: intensive intrinsic taste reminiscent of pepper

Question: And the “relative piquant taste compared with capsaicin” value (mouth)?
Answer: approx. 1%
